# Source: patent US11878975B2, “Substituted indole compounds useful as TLR inhibitors” (BRISTOL-MYERS SQUIBB COMPANY, priority 2017, dated 2024)
# Assays:
# Format in all cases: cell-based
# human TLR7 = target: T1, human TLR7 (Homo sapiens, UniProt Q9NYK1); assay: TLR7 inhibition reporter assay (HEK-Blue cells, SEAP reporter, gardiquimod stimulation); details: HEK-Blue cells overexpressing human TLR7, SEAP reporter, gardiquimod 7.5 μM
# T1 construct: host or cells: HEK-Blue cells
# T1 sequence (Q9NYK1 27-1049): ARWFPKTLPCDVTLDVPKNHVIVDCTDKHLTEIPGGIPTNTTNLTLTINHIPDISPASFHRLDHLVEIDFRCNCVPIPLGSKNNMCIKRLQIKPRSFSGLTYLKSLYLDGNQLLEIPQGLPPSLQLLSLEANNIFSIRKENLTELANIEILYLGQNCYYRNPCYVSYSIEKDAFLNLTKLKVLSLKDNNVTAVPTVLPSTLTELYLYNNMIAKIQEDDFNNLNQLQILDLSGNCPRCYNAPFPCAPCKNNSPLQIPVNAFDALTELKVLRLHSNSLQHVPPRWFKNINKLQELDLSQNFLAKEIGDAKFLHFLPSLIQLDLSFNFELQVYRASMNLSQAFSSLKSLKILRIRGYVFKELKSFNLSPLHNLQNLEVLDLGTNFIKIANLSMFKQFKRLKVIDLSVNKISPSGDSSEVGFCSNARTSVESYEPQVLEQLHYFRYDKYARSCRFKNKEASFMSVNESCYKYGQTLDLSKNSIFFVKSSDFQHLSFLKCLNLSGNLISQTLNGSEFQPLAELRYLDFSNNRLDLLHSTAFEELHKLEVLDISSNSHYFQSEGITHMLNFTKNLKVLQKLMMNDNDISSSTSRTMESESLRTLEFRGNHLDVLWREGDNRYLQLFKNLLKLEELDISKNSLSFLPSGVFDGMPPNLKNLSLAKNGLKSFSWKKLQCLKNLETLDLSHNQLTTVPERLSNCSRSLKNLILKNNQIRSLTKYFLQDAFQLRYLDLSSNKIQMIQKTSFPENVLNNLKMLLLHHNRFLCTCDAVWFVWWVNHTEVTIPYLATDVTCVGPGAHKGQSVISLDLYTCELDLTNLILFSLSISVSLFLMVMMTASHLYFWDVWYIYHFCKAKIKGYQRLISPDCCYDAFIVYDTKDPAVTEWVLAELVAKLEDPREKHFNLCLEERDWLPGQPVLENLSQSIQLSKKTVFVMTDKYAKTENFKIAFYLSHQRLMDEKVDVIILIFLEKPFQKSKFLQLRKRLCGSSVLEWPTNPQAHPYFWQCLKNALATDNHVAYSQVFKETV
# Outline: (§1)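 HEK-Blue cells with NF-κB/AP-1-driven SEAP reporter, pre-treated 30 min at room temperature with compound (0.05 nM-50 μM). Stimulants: gardiquimod 7.5 μM (TLR7), R848 15.9 μM (TLR8) or ODN2006 5 nM (TLR9). SEAP measured after 22 h at 37° C.; percent inhibition versus agonist-plus-DMSO and known-inhibitor wells.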
# human TLR8 = target: T2, human TLR8 (Homo sapiens, UniProt Q9NR97); assay: TLR8 inhibition reporter assay (HEK-Blue cells, SEAP reporter, R848 stimulation); details: HEK-Blue cells overexpressing human TLR8, SEAP reporter, R848 15.9 μM
# T2 construct: host or cells: HEK-Blue cells
# T2 sequence (Q9NR97 27-1041): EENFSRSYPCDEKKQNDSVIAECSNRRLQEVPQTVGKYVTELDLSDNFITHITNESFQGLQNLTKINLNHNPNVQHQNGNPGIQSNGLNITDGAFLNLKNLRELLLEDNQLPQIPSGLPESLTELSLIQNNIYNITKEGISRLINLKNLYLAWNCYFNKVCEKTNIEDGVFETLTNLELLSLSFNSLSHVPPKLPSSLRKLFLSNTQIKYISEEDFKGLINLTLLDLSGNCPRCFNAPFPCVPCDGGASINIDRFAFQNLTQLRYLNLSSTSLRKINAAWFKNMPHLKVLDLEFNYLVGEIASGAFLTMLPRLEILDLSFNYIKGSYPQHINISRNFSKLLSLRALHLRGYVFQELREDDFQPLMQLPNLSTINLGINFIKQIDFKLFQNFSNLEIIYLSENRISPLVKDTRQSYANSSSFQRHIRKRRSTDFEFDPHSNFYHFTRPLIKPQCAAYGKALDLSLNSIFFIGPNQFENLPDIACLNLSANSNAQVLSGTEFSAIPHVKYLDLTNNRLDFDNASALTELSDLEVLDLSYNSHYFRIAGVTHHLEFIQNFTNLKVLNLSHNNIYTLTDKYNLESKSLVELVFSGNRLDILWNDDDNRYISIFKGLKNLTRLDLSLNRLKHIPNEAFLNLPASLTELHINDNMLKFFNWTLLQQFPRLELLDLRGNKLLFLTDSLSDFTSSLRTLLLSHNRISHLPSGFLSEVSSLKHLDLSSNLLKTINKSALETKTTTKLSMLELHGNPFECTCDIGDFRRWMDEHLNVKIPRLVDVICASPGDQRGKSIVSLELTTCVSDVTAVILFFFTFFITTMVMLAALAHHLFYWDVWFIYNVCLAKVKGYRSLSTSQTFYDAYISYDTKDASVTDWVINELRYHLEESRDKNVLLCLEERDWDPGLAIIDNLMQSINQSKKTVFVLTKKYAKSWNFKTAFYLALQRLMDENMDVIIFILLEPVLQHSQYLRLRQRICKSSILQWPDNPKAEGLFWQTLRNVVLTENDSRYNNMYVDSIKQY
# Outline: as §1
# human TLR9 = target: T3, human TLR9 (Homo sapiens, UniProt Q9NR96); assay: TLR9 inhibition reporter assay (HEK-Blue cells, SEAP reporter, ODN2006 stimulation); details: HEK-Blue cells overexpressing human TLR9, SEAP reporter, ODN2006 5 nM
# T3 construct: host or cells: HEK-Blue cells
# T3 sequence (Q9NR96 26-1032): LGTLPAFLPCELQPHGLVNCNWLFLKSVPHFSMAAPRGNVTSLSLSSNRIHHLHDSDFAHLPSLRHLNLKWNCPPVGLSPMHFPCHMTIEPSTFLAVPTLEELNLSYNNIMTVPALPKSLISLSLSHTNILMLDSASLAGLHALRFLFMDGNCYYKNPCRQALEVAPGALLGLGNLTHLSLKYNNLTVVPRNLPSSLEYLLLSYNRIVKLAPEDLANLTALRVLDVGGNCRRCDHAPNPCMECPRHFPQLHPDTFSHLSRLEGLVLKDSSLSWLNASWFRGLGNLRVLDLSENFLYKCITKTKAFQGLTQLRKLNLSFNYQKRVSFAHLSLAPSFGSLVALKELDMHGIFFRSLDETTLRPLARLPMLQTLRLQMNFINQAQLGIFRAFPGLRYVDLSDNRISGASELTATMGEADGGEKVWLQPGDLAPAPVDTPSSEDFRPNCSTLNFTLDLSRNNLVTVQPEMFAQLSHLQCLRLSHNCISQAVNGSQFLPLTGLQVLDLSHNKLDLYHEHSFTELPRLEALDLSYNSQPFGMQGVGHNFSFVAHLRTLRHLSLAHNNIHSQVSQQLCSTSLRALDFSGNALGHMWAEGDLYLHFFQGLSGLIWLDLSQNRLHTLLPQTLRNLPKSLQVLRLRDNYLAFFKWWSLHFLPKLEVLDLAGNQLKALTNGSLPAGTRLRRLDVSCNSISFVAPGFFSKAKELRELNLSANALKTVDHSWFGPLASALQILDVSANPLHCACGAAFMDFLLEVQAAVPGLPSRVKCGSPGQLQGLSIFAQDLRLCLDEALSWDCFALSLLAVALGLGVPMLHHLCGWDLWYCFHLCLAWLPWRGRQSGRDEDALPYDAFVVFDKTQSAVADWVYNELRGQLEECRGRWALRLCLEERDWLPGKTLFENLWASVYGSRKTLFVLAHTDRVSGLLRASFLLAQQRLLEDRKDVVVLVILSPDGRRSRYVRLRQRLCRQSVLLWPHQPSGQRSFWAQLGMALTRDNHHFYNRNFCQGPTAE
# Outline: as §1
SMILES,IC50 (human TLR7) [nM],IC50 (human TLR8) [nM],IC50 (human TLR9) [nM]
COCCN1CC(c2ccc3[nH]c(-c4cn5cnnc5c(C)c4C)c(C(C)C)c3c2)C1 [Example 550],17,13,13600
CNC(=O)CN1CC(c2ccc3[nH]c(-c4cn5ncnc5c(C)c4C)c(C(C)C)c3c2)C1 [Example 552],4,3.4,5570
Cc1c(-c2[nH]c3ccc(C4CN(CC#N)C4)cc3c2C(C)C)cn2ncnc2c1C [Example 553],4,7.2,32300
Cc1c(-c2[nH]c3ccc(C4CN(CCCC(F)(F)F)C4)cc3c2C(C)C)cn2cnnc2c1C [Example 554],18,15,5200
Cc1c(-c2[nH]c3ccc(C4CN(C(C)C)C4)cc3c2C(C)C)cn2ncnc2c1C [Example 555],9,10,7730
Cc1c(-c2[nH]c3ccc(C4CN(CC(=O)N(C)C)C4)cc3c2C(C)C)cn2ncnc2c1C [Example 556],6,4.9,5120
Cc1c(-c2[nH]c3ccc(C4CN(CC(C)(C)O)C4)cc3c2C(C)C)cn2ncnc2c1C [Example 557],9,3.6,6750
Cc1c(-c2[nH]c3ccc(C4CC5CN(CC#N)CC5C4)cc3c2C(C)C)cn2cnnc2c1C (stereo not drawn) [Example 558],6,117,3720
Cc1c(-c2[nH]c3ccc(C4CC5CN(CC6(C)COC6)CC5C4)cc3c2C(C)C)cn2cnnc2c1C (stereo not drawn) [Example 561],5,25,4680
Cc1c(-c2[nH]c3ccc(C4CC5CN(C6CCOC6)CC5C4)cc3c2C(C)C)cn2cnnc2c1C (stereo not drawn) [Example 562],4,28,3710
Cc1c(-c2[nH]c3ccc(C4CC5CN(C6CCOCC6)CC5C4)cc3c2C(C)C)cn2cnnc2c1C (stereo not drawn) [Example 563],1270,3130,38200
Cc1c(-c2[nH]c3ccc(C4CN(C(=O)CN(C)C)C4)cc3c2C(C)C)cn2ncnc2c1C [Example 564],3,7,7310
Cc1c(-c2[nH]c3ccc(C4CC(NC(=O)CN(C)C)C4)cc3c2C(C)C)cn2ncnc2c1C (stereo not drawn) [Example 573],3,2.3,12600
Cc1c(-c2[nH]c3ccc(C4CC(NC5COC5)C4)cc3c2C(C)C)cn2ncnc2c1C (stereo not drawn) [Example 575],4,1.1,22300

# The next compounds have a lower IC50 (human TLR7) than those just listed; values first:
IC50 (human TLR7) [nM],IC50 (human TLR8) [nM],IC50 (human TLR9) [nM],SMILES
2,3.2,3350,Cc1c(-c2[nH]c3ccc(C4CN(Cc5c[nH]nn5)C4)cc3c2C(C)C)cn2ncnc2c1C [Example 551]
2,9.2,2120,Cc1c(-c2[nH]c3ccc(C4CC5CN(C)CC5C4)cc3c2C(C)C)cn2cnnc2c1C (stereo not drawn) [Example 559]
1,27,2330,Cc1c(-c2[nH]c3ccc(C4CC5CN(C(C)C)CC5C4)cc3c2C(C)C)cn2cnnc2c1C (stereo not drawn) [Example 560]
1,0.6,4450,Cc1c(-c2[nH]c3ccc(C4CC(NCC(=O)N(C)C)C4)cc3c2C(C)C)cn2ncnc2c1C (stereo not drawn) [Example 566]
2,1.1,26700,Cc1c(-c2[nH]c3ccc(C4CC(NCC#N)C4)cc3c2C(C)C)cn2ncnc2c1C (stereo not drawn) [Example 567]
0.53,0.76,980,COc1cc(-c2[nH]c3ccc(C4CC(N)C4)cc3c2C(C)C)cn2ncnc12 (stereo not drawn) [Example 568]
0.32,0.62,4550,COc1cc(-c2[nH]c3ccc(C4CC(NC(=O)CN(C)C)C4)cc3c2C(C)C)cn2ncnc12 (stereo not drawn) [Example 569]
0.93,0.9,3450,COc1cc(-c2[nH]c3ccc(C4CC(NCC(=O)N(C)C)C4)cc3c2C(C)C)cn2ncnc12 (stereo not drawn) [Example 570]
0.53,0.33,2320,COc1cc(-c2[nH]c3ccc(C4CC(NCCS(C)(=O)=O)C4)cc3c2C(C)C)cn2ncnc12 (stereo not drawn) [Example 571]
0.93,0.31,4960,Cc1c(-c2[nH]c3ccc(C4CC(NCCS(C)(=O)=O)C4)cc3c2C(C)C)cn2ncnc2c1C (stereo not drawn) [Example 572]
1,0.58,4250,Cc1c(-c2[nH]c3ccc(C4CC(N(C)C)C4)cc3c2C(C)C)cn2ncnc2c1C (stereo not drawn) [Example 574]
0.59,0.61,6440,Cc1c(-c2[nH]c3ccc(C4CC(NC(=O)CN(C)C)C4)cc3c2C(C)C)cn2ncnc2c1C (stereo not drawn) [Example 578]
1,0.73,7410,COc1cc(-c2[nH]c3ccc(C4CC(NC5COC5)C4)cc3c2C(C)C)cn2ncnc12 (stereo not drawn) [Example 579]
